Measured values: patent publication US9376418B2, “Substituted pyridine spleen tyrosine kinase (SYK) inhibitors” (Merck Sharp & Dohme Corp., priority 2012, dated 2016)

What follows are compounds tested against T1, recombinant human GST-SYK (Homo sapiens, UniProt P43405) (assay: Homogeneous Time-Resolved Fluorescence (HTRF) assay for the recombinant human Syk enzyme). Conditions: HTRF assay, recombinant human GST-SYK; IC50 given as class symbols; read-out: rhSYK Activity.
T1 construct: purchased Carna Biosciences 08-176
Assay type: biochemical
Outline: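 HTRF read-out: Europium-anti-phosphotyrosine antibody (2 nM) plus SA-APC (70 nM) in EDTA-containing buffer quenched the reaction, and signal was read after 30 minutes. Kinase step used […], 250 nM biotinylated peptide, 25 μM ATP, 5 mM Mg, 45′ at room temperature.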

| SMILES | IC50 [nM] |
| --- | --- |
| Cc1cc(Nc2nccc(C(F)(F)F)n2)cc(-c2cncc(NCC3CC3)c2)c1 [Example 15.11] | < 100 |
| Cc1cc(Nc2nccc(C(F)(F)F)n2)cc(-c2cncc(NCCN3CCOCC3)c2)c1 [Example 15.16] | < 100 |
| Cc1cc(Nc2nccc(C(F)(F)F)n2)cc(-c2cncc(NCC(=O)O)c2)c1 [Example 15.20, N-[5-(3-methyl-5-{[4-(trifluoromethyl)pyrimidin-2-yl]amino}phenyl)pyridin-3-yl]glycine] | < 100 |
| Cc1cc(Nc2nccc(C(F)(F)F)n2)cc(-c2cncc(NCc3ccc[nH]c3=O)c2)c1 [Example 15.21, 3-({[5-(3-methyl-5-{[4-(trifluoromethyl)pyrimidin-2-yl]amino}phenyl)pyridin-3-yl]amino}methyl)pyridin-2(1H)-one] | < 100 |
| Cc1cc(Nc2nccc(C(F)(F)F)n2)cc(-c2cncc(NCCO)c2)c1 [Example 15.22, 2-{[5-(3-Methyl-5-{[4-(trifluoromethyl)pyrimidin-2-yl]amino}phenyl)pyridin-3-yl]amino}ethanol] | < 100 |
| CC(=O)N1CCN(c2cc(-c3cc(C)cc(Nc4nccc(C(F)(F)F)n4)c3)ccn2)CC1 [Example 15.23, 1-{4-[4-(3-Methyl-5-{[4-(trifluoromethyl)pyrimidin-2-yl]amino}phenyl)pyridin-2-yl]piperazin-1-yl}ethanone] | < 100 |
| Cc1cc(Nc2nccc(C(F)(F)F)n2)cc(-c2ccnc(N3CCN(C=O)CC3)c2)c1 [Example 15.24, 4-[4-(3-methyl-5-{[4-(trifluoromethyl)pyrimidin-2-yl]amino}phenyl)pyridin-2-yl]piperazine-1-carbaldehyde] | < 100 |
| Cc1cc(Nc2nccc(C(F)(F)F)n2)cc(-c2ccnc(N3CCC4(CCCC(=O)N4)CC3)c2)c1 [Example 15.25, 9-[4-(3-methyl-5-{[4-(trifluoromethyl)pyrimidin-2-yl]amino}phenyl)pyridin-2-yl]-1,9-diazaspiro[5.5]undecan-2-one] | 100 to 1000 |
| Cc1cc(Nc2nccc(C(F)(F)F)n2)cc(-c2ccnc(N3CCCC4(CCCCO4)C3)c2)c1 (stereo not shown) [Example 15.26, N-{3-methyl-5-[2-(1-oxa-8-azaspiro[5.5]undec-8-yl)pyridin-4-yl]phenyl}-4-(trifluoromethyl)pyrimidin-2-amine] | 1000 to 10000 |
| Cc1cc(Nc2nccc(C(F)(F)F)n2)cc(-c2ccnc(N3CCCC4(CCCNC4=O)C3)c2)c1 (stereo not shown) [Example 15.27, 8-[4-(3-methyl-5-{[4-(trifluoromethyl)pyrimidin-2-yl]amino}phenyl)pyridin-2-yl]-2,8-diazaspiro[5.5]undecan-1-one] | < 100 |
| Cc1cc(Nc2nccc(C(F)(F)F)n2)cc(-c2ccnc(N3CCCC4(CCCO4)C3)c2)c1 (stereo not shown) [Example 15.28, N-{3-methyl-5-[2-(1-oxa-7-azaspiro[4.5]dec-7-yl)pyridin-4-yl]phenyl}-4-(trifluoromethyl)pyrimidin-2-amine] | 100 to 1000 |
| Cc1cc(Nc2nccc(C(F)(F)F)n2)cc(-c2ccnc(N3CCCC4(CCNC4=O)C3)c2)c1 (stereo not shown) [Example 15.29, 7-[4-(3-methyl-5-{[4-(trifluoromethyl)pyrimidin-2-yl]amino}phenyl)pyridin-2-yl]-2,7-diazaspiro[4.5]decan-1-one] | < 100 |
| Cc1cc(Nc2nccc(C(F)(F)F)n2)cc(-c2ccnc(N3CCCC4(CCOC4=O)C3)c2)c1 (stereo not shown) [Example 15.30, 7-[4-(3-methyl-5-{[4-(trifluoromethyl)pyrimidin-2-yl]amino}phenyl)pyridin-2-yl]-2-oxa-7-azaspiro[4.5]decan-1-one] | < 100 |
| Cc1cc(Nc2nccc(C(F)(F)F)n2)cc(-c2ccnc(N3CCC4(CCN(C)C4=O)CC3)c2)c1 [Example 15.31, 2-methyl-8-[4-(3-methyl-5-{[4-(trifluoromethyl)pyrimidin-2-yl]amino}phenyl)pyridin-2-yl]-2,8-diazaspiro[4.5]decan-1-one] | 100 to 1000 |
| Cc1cc(Nc2nccc(C(F)(F)F)n2)cc(-c2ccnc(NCC3CCC(=O)N3)c2)c1 (stereo not shown) [Example 15.32, 5-({[4-(3-methyl-5-{[4-(trifluoromethyl)pyrimidin-2-yl]amino}phenyl)pyridin-2-yl]amino}methyl)pyrrolidin-2-one] | < 100 |

Further lines, results first:

| IC50 [nM] | SMILES |
| --- | --- |
| 100 to 1000 | Cc1cc(Nc2nccc(C(F)(F)F)n2)cc(-c2ccnc(NCCc3cnccn3)c2)c1 [Example 15.33, N-(3-methyl-5-{2-[(2-pyrazin-2-ylethyl)amino]pyridin-4-yl}phenyl)-4-(trifluoromethyl)pyrimidin-2-amine] |
| 100 to 1000 | Cc1cc(Nc2nccc(C(F)(F)F)n2)cc(-c2ccnc(NC(C)c3ccccn3)c2)c1 (stereo not shown) [Example 15.34, N-(3-methyl-5-{2-[(1-pyridin-2-ylethyl)amino]pyridin-4-yl}phenyl)-4-(trifluoromethyl)pyrimidin-2-amine] |
| 100 to 1000 | Cc1cc(Nc2nccc(C(F)(F)F)n2)cc(-c2ccnc(NCc3cnn(C)c3)c2)c1 [Example 15.35, N-[3-methyl-5-(2-{[(1-methyl-1H-pyrazol-4-yl)methyl]amino}pyridin-4-yl)phenyl]-4-(trifluoromethyl)pyrimidin-2-amine] |
| 100 to 1000 | Cc1cc(Nc2nccc(C(F)(F)F)n2)cc(-c2ccnc(N3CCCC34CCNC4=O)c2)c1 (stereo not shown) [Example 15.36, 1-[4-(3-methyl-5-{[4-(trifluoromethyl)pyrimidin-2-yl]amino}phenyl)pyridin-2-yl]-1,7-diazaspiro[4.4]nonan-6-one] |
| < 100 | CCC(CO)Nc1cc(-c2cc(C)cc(Nc3nccc(C(F)(F)F)n3)c2)ccn1 (stereo not shown) [Example 15.37, 2-{[4-(3-methyl-5-{[4-(trifluoromethyl)pyrimidin-2-yl]amino}phenyl)pyridin-2-yl]amino}butan-1-ol] |
| 100 to 1000 | Cc1cc(Nc2nccc(C(F)(F)F)n2)cc(-c2ccnc(NCc3cncn3C)c2)c1 [Example 15.38, N-[3-methyl-5-(2-{[(1-methyl-1H-imidazol-5-yl)methyl]amino}pyridin-4-yl)phenyl]-4-(trifluoromethyl)pyrimidin-2-amine] |
| 100 to 1000 | Cc1cc(Nc2nccc(C(F)(F)F)n2)cc(-c2ccnc(N3CCN(C(=O)c4ccc5cc[nH]c5c4)CC3)c2)c1 [Example 15.39, N-(3-{2-[4-(1H-indol-6-ylcarbonyl)piperazin-1-yl]pyridin-4-yl}-5-methylphenyl)-4-(trifluoromethyl)pyrimidin-2-amine] |
| 100 to 1000 | Cc1cc(Nc2nccc(C(F)(F)F)n2)cc(-c2ccnc(NCc3cn(C)cn3)c2)c1 [Example 15.40, N-[3-methyl-5-(2-{[(1-methyl-1H-imidazol-4-yl)methyl]amino}pyridin-4-yl)phenyl]-4-(trifluoromethyl)pyrimidin-2-amine] |
| < 100 | Cc1cc(Nc2nccc(C(F)(F)F)n2)cc(-c2ccnc(NCCN)c2)c1 [Example 15.41, N-[4-(3-methyl-5-{[4-(trifluoromethyl)pyrimidin-2-yl]amino}phenyl)pyridin-2-yl]ethane-1,2-diamine] |
| < 100 | Cc1cc(Nc2nccc(C(F)(F)F)n2)cc(-c2ccnc(N3CCNC(=O)CC3)c2)c1 [Example 15.42, 1-[4-(3-methyl-5-{[4-(trifluoromethyl)pyrimidin-2-yl]amino}phenyl)pyridin-2-yl]-1,4-diazepan-5-one] |
| < 100 | Cc1cc(Nc2nccc(C(F)(F)F)n2)cc(-c2ccnc(NC(C)(C)C(=O)O)c2)c1 [Example 15.43, 2-methyl-N-[4-(3-methyl-5-{[4-(trifluoromethyl)pyrimidin-2-yl]amino}phenyl)pyridin-2-yl]alanine] |
| < 100 | Cc1cc(Nc2nccc(C(F)(F)F)n2)cc(-c2ccnc(N3CCNC(=O)C3)c2)c1 [Example 15.44, 4-[4-(3-methyl-5-{[4-(trifluoromethyl)pyrimidin-2-yl]amino}phenyl)pyridin-2-yl]piperazin-2-one] |
| < 100 | Cc1cc(Nc2nccc(C(F)(F)F)n2)cc(-c2ccnc(N(C)CCO)c2)c1 [Example 15.45, 2-{methyl[4-(3-methyl-5-{[4-(trifluoromethyl)pyrimidin-2-yl]amino}phenyl)pyridin-2-yl]amino}ethanol] |
| < 100 | Cc1cc(Nc2nccc(C(F)(F)F)n2)cc(-c2ccnc(N3CCC(C(N)=O)CC3)c2)c1 [Example 15.46, 1-[4-(3-methyl-5-{[4-(trifluoromethyl)pyrimidin-2-yl]amino}phenyl)pyridin-2-yl]piperidine-4-carboxamide] |
| < 100 | Cc1cc(Nc2nccc(C(F)(F)F)n2)cc(-c2ccnc(N3CCN(C)C(=O)C3)c2)c1 [Example 15.47, 1-methyl-4-[4-(3-methyl-5-{[4-(trifluoromethyl)pyrimidin-2-yl]amino}phenyl)pyridin-2-yl]piperazin-2-one] |
| < 100 | Cc1cc(Nc2nccc(C(F)(F)F)n2)cc(-c2ccnc(N[C@@H](C)CO)c2)c1 [Example 15.48, (2S)-2-{[4-(3-methyl-5-{[4-(trifluoromethyl)pyrimidin-2-yl]amino}phenyl)pyridin-2-yl]amino}propan-1-ol] |
| < 100 | Cc1cc(Nc2nccc(C(F)(F)F)n2)cc(-c2ccnc(NC(C)(CO)CO)c2)c1 [Example 15.49, 2-methyl-2-{[4-(3-methyl-5-{[4-(trifluoromethyl)pyrimidin-2-yl]amino}phenyl)pyridin-2-yl]amino}propane-1,3-diol] |
| < 100 | Cc1cc(Nc2nccc(C(F)(F)F)n2)cc(-c2ccnc(NC3(CO)CCCC3)c2)c1 [Example 15.50, (1-{[4-(3-methyl-5-{[4-(trifluoromethyl)pyrimidin-2-yl]amino}phenyl)pyridin-2-yl]amino}cyclopentyl)methanol] |
| < 100 | Cc1cc(Nc2nccc(C(F)(F)F)n2)cc(-c2ccnc(NC(C)(C)CO)c2)c1 [Example 15.51, 2-methyl-2-{[4-(3-methyl-5-{[4-(trifluoromethyl)pyrimidin-2-yl]amino}phenyl)pyridin-2-yl]amino}propan-1-ol] |
